{"source": "patent US9713648B2", "about": "“Weekly dosing regimens for anti-CD30 VC-PAB-MMAE antibody drug-conjugates” (Seattle Genetics, Inc., priority 2009, dated 2017)", "assay_type_in_all_cases": "in vivo, human", "key": {"[1]": {"system": "HL", "test": "Phase 1 weekly dosing study: response rate in HL patients", "settings": "weekly 0.4-1.4 mg/kg", "experimental": "(§1) A multicenter, phase 1, weekly dosing, dose escalation study was conducted in pts with refractory or relapsed HL or systemicALCL. The cAC10-MC-vc-PAB-MMAE antibody drug conjugate was administered weekly at doses of 0.4-1.4 mg/kg (2-hr IV infusions). Patients with […] or better after two 21-day cycles (6 doses) were eligible to continue treatment with the antibody drug conjugate.\n(§2) Results: In 34 patients, median age was 34 yrs (range 13-82). Patients received a median of 5 prior therapies; 62% received an autologous SCT. MTD was exceeded at 1.4 mg/kg."}, "[2]": {"test": "Phase 1 weekly dosing study: tolerability, adverse events, MTD/DLT", "experimental": "as §1\nThe grade 4 events were neutropenia (1 subject), and hyperglycemia (1). The grade 3 events were neutropenia (3), diarrhea (1), paresthesia (1), vomiting (1), and leucopenia (1). The grade 2 or lower adverse events were nausea (9), fatigue (8), peripheral neuropathy (6), neutropenia (2), dizziness (4), hyperglycemia (3), and paresthesia (3). The dose limiting toxicity was at 1.4 mg/kg."}, "[3]": {"system": "refractory or relapsed HL or systemicALCL", "test": "Phase 1 weekly dosing, dose escalation study: best clinical response, all evaluable patients", "settings": "for Best Clinical Response: CR / Best Clinical Response: PD / Best Clinical Response: PR / Best Clinical Response: SD: number of patients", "experimental": "as §1, §2"}, "[4]": {"test": "Phase 1 weekly dosing study: exposure (AUC)", "settings": "weekly doses of 0.4-1.4 mg/kg", "experimental": "as §1, §2"}, "[5]": {"system": "sALCL", "test": "Phase 1 weekly dosing study: response rate in sALCL patients", "settings": "sALCL patients (4/5), weekly 0.4-1.4 mg/kg", "experimental": "as §1, §2"}, "[6]": {"settings": "number of subjects among 34 treated patients"}, "[7]": {"settings": "Total of all dose groups 0.4-1.4 mg/kg, N=27"}, "[8]": {"settings": "dose group 0.6 mg/kg weekly, N=3"}, "[9]": {"settings": "dose group 1.0 mg/kg weekly, N=6"}, "[10]": {"settings": "dose group 1.2 mg/kg weekly, N=5"}, "[11]": {"settings": "dose group 1.4 mg/kg weekly, N=3"}}}
{"substance": "cAC10-MC-vc-PAB-MMAE: chimeric AC10 antibody conjugated to the drug MMAE through a MC-vc-PAB linker; anti-CD30 antibody-drug conjugate", "values": [{"measurement": "Complete Response", "setting": "[1]; HL Patients (6/22)", "result": "27% (6/22)"}, {"measurement": "Overall Response Rate (CR + PR)", "setting": "[1]; HL Patients (9/22)", "result": "41% (9/22)"}, {"measurement": "grade 5 events", "setting": "[2]; 34 treated patients", "result": "no grade 5 events"}, {"measurement": "tolerability", "setting": "[2]; 34 treated patients", "result": "generally well tolerated"}, {"measurement": "grade 2 or lower adverse events: dizziness", "setting": "[2]; [6]", "result": 4}, {"measurement": "grade 2 or lower adverse events: fatigue", "setting": "[2]; [6]", "result": 8}, {"measurement": "grade 2 or lower adverse events: hyperglycemia", "setting": "[2]; [6]", "result": 3}, {"measurement": "grade 2 or lower adverse events: nausea", "setting": "[2]; [6]", "result": 9}, {"measurement": "grade 2 or lower adverse events: neutropenia", "setting": "[2]; [6]", "result": 2}, {"measurement": "grade 2 or lower adverse events: paresthesia", "setting": "[2]; [6]", "result": 3}, {"measurement": "grade 2 or lower adverse events: peripheral neuropathy", "setting": "[2]; [6]", "result": 6}, {"measurement": "grade 3 events: diarrhea", "setting": "[2]; [6]", "result": 1}, {"measurement": "grade 3 events: leucopenia", "setting": "[2]; [6]", "result": 1}, {"measurement": "grade 3 events: neutropenia", "setting": "[2]; [6]", "result": 3}, {"measurement": "grade 3 events: paresthesia", "setting": "[2]; [6]", "result": 1}, {"measurement": "grade 3 events: vomiting", "setting": "[2]; [6]", "result": 1}, {"measurement": "grade 4 events: hyperglycemia", "setting": "[2]; [6]", "result": 1}, {"measurement": "grade 4 events: neutropenia", "setting": "[2]; [6]", "result": 1, "unit": "subject"}, {"measurement": "dose limiting toxicity (dose at which it occurred)", "setting": "[2]; weekly dosing", "result": 1.4, "unit": "mg/kg"}, {"measurement": "MTD (exceeded at)", "setting": "[2]; weekly dosing, 2-hr IV infusions, 34 patients", "result": "< 1.4", "unit": "mg/kg"}, {"measurement": "observed time to response", "setting": "[3]; 1 mg/kg dose, weekly", "result": "approximately 8 wks"}, {"measurement": "Complete Response", "setting": "[3]; All Patients (10/27), weekly 0.4-1.4 mg/kg", "result": "37% (10/27)"}, {"measurement": "Overall Response Rate (CR + PR)", "setting": "[3]; All Patients (13/27), weekly 0.4-1.4 mg/kg", "result": "48% (13/27)"}, {"measurement": "Tumor Reductions", "setting": "[3]; All Patients (22/27), weekly 0.4-1.4 mg/kg", "result": "81% (22/27)"}, {"measurement": "CRs observed", "setting": "[3]; at higher doses", "result": "Multiple"}, {"measurement": "Best Clinical Response: CR", "setting": "[3]; [7]", "result": "10 ^"}, {"measurement": "Best Clinical Response: PD", "setting": "[3]; [7]", "result": 3}, {"measurement": "Best Clinical Response: PR", "setting": "[3]; [7]", "result": 3}, {"measurement": "Best Clinical Response: SD", "setting": "[3]; [7]", "result": 22}, {"measurement": "Best Clinical Response: SD", "setting": "[3]; dose group 0.4 mg/kg weekly, N=4, includes 1 patient with ALCL", "result": "4^+"}, {"measurement": "Best Clinical Response: PD", "setting": "[3]; [8]", "result": 1}, {"measurement": "Best Clinical Response: PR", "setting": "[3]; [8]", "result": 1}, {"measurement": "Best Clinical Response: SD", "setting": "[3]; [8]", "result": 1}, {"measurement": "Best Clinical Response: PD", "setting": "[3]; dose group 0.8 mg/kg weekly, N=6", "result": 1}, {"measurement": "Best Clinical Response: SD", "setting": "[3]; dose group 0.8 mg/kg weekly, N=6, 1 pediatric patient", "result": "1^P"}, {"measurement": "Best Clinical Response: CR", "setting": "[3]; dose group 0.8 mg/kg weekly, N=6, includes 2 patients with ALCL", "result": "4^++"}, {"measurement": "Best Clinical Response: PR", "setting": "[3]; [9]", "result": 1}, {"measurement": "Best Clinical Response: SD", "setting": "[3]; [9]", "result": 1}, {"measurement": "Best Clinical Response: CR", "setting": "[3]; dose group 1.0 mg/kg weekly, N=6, includes 2 patients with ALCL", "result": "4^++"}, {"measurement": "Best Clinical Response: PD", "setting": "[3]; [10]", "result": 1}, {"measurement": "Best Clinical Response: PR", "setting": "[3]; [10]", "result": 1}, {"measurement": "Best Clinical Response: SD", "setting": "[3]; dose group 1.2 mg/kg weekly, N=5, includes 1 pediatric patient", "result": "3^P"}, {"measurement": "Best Clinical Response: CR", "setting": "[3]; [11]", "result": "2^"}, {"measurement": "Best Clinical Response: SD", "setting": "[3]; [11]", "result": 1}, {"measurement": "time within which multiple complete responses were observed", "setting": "[3]; phase I study, weekly regimen", "result": "≤ 8", "unit": "weeks"}, {"measurement": "Exposure (AUC)", "setting": "[4]", "result": "increased relative to dose level"}, {"measurement": "Complete Response", "setting": "[5]", "result": "80% (4/5)"}, {"measurement": "Overall Response Rate (CR + PR)", "setting": "[5]", "result": "80% (4/5)"}]}
